According to ChEMBL document CHEMBL1201862, “PubChem BioAssay data set” (2004):
Activity calls are given as the source filed them.

Assays:
[1] = test system: HT-1080; experiment: HT1080 cell viability loss – fluorescence readout (AID 620); type: functional, cell-based; conditions: Homo sapiens
[2] = test system: HEK293; experiment: TNF Induced NF-kB Luciferase in 293-NF-kB-Luc Stable Cells. [Related pubchem assays: 1266, 1299, 1269, 1373, 1292, 1290, 1302, 1371, 1283, 1270, 1295, 1271, 1375, 1294, 1374, 1281, 1293, 1291, 1289, 1280, 465, 1368, 1364, 1282, 1372, 1365, 1369, 1370, 1367, 1366 ]; type: functional, cell-based; conditions: Homo sapiens
[3] = Luminescence-based counterscreen assay for KLF5 inhibitors: dose response cell-based high throughput screening assay to identify cytotoxic compounds using the IEC-6 intestinal epithelial cell line. [Related pubchem assays: 1700 (Primary screen.), 1834 (Confirmation screen.), 1858 (Summary AID.), 1905 (Counterscreen.)]; type: functional
[4] = luciferase reporter signal suppression in cells – H4 neuroglioma cells, luminescence, dose response (AID 1990); type: functional, cell-based
[5] = off-target signal loss in HeLa-CEM21 co-culture – HeLa F-luc CTL cells, cherry-picked, counter-screen for HIV-1 Env fusion inhibitor project, dose response (AID 652040); type: functional, cell-based;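 also: potency for signal decrease marking cytotoxic or nonspecific inhibition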
[6] = HEK-293T cell viability reduction – luminescence, B-cell screen hits, cytotoxicity control for BCR NF-kB inhibitor project, dose response (AID 489021); type: functional, cell-based;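 also: HEK-293T cells carrying an NF-kB luciferase reporter; cells exposed to compound for about 14 hours before viability readout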
[7] = test system: HEK293; experiment: Cytotoxicity assay in HEK293 cells. [Related pubchem assays (depositor defined):AID1266, AID1269, AID1270, AID1271, AID1280, AID1281, AID1282, AID1283, AID1287, AID1289, AID1290, AID1291, AID1292, AID1293, AID1294, AID1295, AID1299, AID1302, AID1364, AID1365, AID1366, AID1367, AID1369, AID1370, AID1371, AID1372, AID1373, AID1374, AID1375, AID1384 …; type: functional, cell-based; conditions: Homo sapiens
[8] = cells; type: functional, cell-based
[9] = test system: HEK293; experiment: EBV LMP1 TES2 canonical NF-kB signalling blockers – cell-based, HEK293, luciferase, cherry-pick, dose response (AID 588343); type: functional; conditions: Homo sapiens
[10] = blockers of HIV-1 envelope-mediated cell-cell fusion – cherry-pick, dose response (AID 652057); type: functional, cell-based
[11] = alpha-synuclein stem-loop luciferase translation blockers – H4 neuroglioma cells, luminescence, confirmation (AID 1988); type: functional, cell-based
[12] = test system: HEK293; experiment: HEK293T cell viability loss, resazurin readout – resazurin fluorescence, cytotoxicity control for NF-kB activator project, SAR follow-up (AID 493251); type: functional, cell-based; conditions: Homo sapiens
[13] = molecular target: T1, Luciferin 4-monooxygenase (Photinus pyralis, UniProt P08659); experiment: In vitro luciferase assay using purified luciferase. [Related pubchem assays: 1299, 1270, 1295, 1375, 1287, 1281, 1293, 1291, 1289, 1280, 465, 1364, 1282, 1372, 1365, 1370, 1367, 1366, 1266, 1373, 1292, 1290, 1302, 1371, 1283, 1271, 1294, 1374, 1368, 1369 ]
T1 sequence (P08659 whole entry): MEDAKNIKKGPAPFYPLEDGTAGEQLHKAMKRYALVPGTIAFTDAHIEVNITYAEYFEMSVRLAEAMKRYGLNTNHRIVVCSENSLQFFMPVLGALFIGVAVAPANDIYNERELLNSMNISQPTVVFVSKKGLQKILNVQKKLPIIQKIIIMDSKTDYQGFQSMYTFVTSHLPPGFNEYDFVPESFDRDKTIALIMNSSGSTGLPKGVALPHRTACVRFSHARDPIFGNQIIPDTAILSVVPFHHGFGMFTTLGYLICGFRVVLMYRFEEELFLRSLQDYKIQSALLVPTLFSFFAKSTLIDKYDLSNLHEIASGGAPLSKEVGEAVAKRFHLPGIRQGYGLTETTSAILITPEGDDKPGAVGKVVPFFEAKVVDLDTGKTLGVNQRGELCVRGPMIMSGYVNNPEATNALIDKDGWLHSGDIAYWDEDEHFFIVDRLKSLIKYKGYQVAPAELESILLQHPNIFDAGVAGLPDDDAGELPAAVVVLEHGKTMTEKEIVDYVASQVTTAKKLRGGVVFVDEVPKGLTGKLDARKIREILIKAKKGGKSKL

[14] = test system: HEK293; experiment: SAR Analysis of small molecule inhibitors of T-cell specific antigen receptor-induced NF-kB activation in a HEK-293T cell line using a luminescence assay - Set 2. [Related pubchem assays (depositor defined):AID435003, AID435012, AID489026]; type: functional, cell-based; conditions: Homo sapiens
[15] = HIV-1 AD8 envelope cell-cell fusion blockers – cherry-pick, dose response (AID 652062); type: functional, cell-based;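 also: luciferase signal from cell-cell fusion driven by HIV-1 clade B AD8 Env; potency is for inhibitors of fusion seen as a drop in luminescence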
[16] = luciferase reporter signal reduction – luminescence, H4-C neuroglioblastoma cells, dose response (AID 2458); type: functional, cell-based;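 also: H4 neuroglioblastoma cells stably carrying a luciferase reporter gene fusion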
[17] = test system: Jurkat; experiment: SAR Analysis of small molecule inhibitors of T-cell specific antigen receptor-induced NF-kB activation in a Jurkat cell line using a luminescence assay - Set 2. [Related pubchem assays (depositor defined):AID435003, AID435012, AID465]; type: functional, cell-based; conditions: Homo sapiens
[18] = blockers of HIV-1 ZM109 envelope-driven cell-cell fusion – HeLa effector, CEM target cells, luciferase, cherry-pick, dose response (AID 652058); type: functional, cell-based;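 also: luciferase signal from HIV-1 Env mediated cell-cell fusion of effector and target cells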
[19] = alpha-synuclein stem-loop translation blockers – luminescence, H4 neuroglioblastoma cells, dose confirmation, confirmation (AID 2454); type: functional, cell-based;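 also: H4 neuroglioblastoma cells carrying an alpha-synuclein 5'UTR luciferase reporter; potency for inhibition of the luciferase signal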
[20] = molecular target: T1, Luciferin 4-monooxygenase; experiment: Counter Screen for Luciferase-based Assay Positives. [Related pubchem assays: 620, 618, 411 ]
[21] = test system: HEK293; experiment: PMA/Ionomycin induced NF-kB luciferase assay in 293- NF-kB-Luc stable cells. [Related pubchem assays: 1299, 1270, 1295, 1375, 1287, 1281, 1293, 1291, 1289, 1280, 465, 1364, 1282, 1372, 1365, 1370, 1367, 1366, 1269, 1373, 1292, 1290, 1302, 1371, 1283, 1271, 1294, 1374, 1368, 1369 ]; type: functional, cell-based; conditions: Homo sapiens
[22] = molecular target: T2, Caspase-3 (Homo sapiens, UniProt P42574); experiment: SAR Analysis of small molecule inhibitors of Sentrin-specific proteases (SENPs) using a Caspase-3 Selectivity assay. [Related pubchem assays (depositor defined):AID2540, AID2599, AID434973, AID489001]; type: functional
T2 sequence (P42574 whole entry): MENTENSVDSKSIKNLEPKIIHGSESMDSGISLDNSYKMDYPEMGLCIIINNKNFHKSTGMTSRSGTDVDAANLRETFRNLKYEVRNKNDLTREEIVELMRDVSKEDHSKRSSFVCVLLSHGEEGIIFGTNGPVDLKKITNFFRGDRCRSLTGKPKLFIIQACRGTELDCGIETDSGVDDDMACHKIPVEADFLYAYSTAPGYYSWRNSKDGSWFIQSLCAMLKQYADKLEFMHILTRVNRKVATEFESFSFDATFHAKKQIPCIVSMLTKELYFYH

[23] = molecular target: T3, Sentrin-specific protease 8 (Homo sapiens, UniProt Q96LD8); experiment: inhibition of human SENP8 cleavage activity – biochemical, luminescence, SAR follow-up (AID 504501); type: functional
T3 sequence (Q96LD8 whole entry): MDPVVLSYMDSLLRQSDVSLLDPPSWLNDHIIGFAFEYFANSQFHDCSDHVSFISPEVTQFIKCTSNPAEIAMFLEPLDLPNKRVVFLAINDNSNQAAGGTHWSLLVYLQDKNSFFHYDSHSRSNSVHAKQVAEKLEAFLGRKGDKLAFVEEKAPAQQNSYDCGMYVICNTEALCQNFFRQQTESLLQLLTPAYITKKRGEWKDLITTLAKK

[24] = molecular target: T4, Sentrin-specific protease 6 (Homo sapiens, UniProt Q9GZR1); experiment: SAR Analysis of small molecule inhibitors of Sentrin-specific protease 6 (SENP6) using a Luminescent assay. [Related pubchem assays (depositor defined):AID2582, AID2599]; type: functional
T4 sequence (Q9GZR1 whole entry): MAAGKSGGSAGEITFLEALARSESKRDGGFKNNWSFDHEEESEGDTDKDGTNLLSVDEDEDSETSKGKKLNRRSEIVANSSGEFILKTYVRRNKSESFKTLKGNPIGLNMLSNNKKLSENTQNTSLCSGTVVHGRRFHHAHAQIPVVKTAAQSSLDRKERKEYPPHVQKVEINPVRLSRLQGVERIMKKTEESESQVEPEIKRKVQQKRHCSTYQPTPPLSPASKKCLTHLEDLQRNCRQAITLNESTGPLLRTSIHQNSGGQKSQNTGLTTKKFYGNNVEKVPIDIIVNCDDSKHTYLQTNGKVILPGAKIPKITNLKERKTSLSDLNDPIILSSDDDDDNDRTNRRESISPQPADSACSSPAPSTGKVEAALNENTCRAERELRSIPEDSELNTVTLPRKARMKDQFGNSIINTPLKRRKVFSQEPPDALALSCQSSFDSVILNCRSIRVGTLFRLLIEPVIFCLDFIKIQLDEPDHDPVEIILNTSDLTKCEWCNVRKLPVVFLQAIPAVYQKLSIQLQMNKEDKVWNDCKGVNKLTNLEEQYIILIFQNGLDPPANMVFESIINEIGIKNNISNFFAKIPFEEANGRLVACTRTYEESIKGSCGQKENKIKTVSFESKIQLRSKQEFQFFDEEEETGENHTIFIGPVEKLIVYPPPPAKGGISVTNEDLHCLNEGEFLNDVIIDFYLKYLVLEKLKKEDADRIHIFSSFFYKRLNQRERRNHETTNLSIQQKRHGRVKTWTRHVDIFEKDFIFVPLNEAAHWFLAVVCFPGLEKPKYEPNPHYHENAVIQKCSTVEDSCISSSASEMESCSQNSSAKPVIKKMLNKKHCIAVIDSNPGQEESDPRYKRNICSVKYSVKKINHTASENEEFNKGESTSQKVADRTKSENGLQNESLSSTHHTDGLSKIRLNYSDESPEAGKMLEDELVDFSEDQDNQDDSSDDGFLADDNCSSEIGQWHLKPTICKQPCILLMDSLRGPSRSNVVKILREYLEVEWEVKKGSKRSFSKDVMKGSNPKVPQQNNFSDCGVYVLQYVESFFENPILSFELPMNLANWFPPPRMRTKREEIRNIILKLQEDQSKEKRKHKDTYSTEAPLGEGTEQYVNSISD

[25] = molecular target: T5, Sentrin-specific protease 7 (Homo sapiens, UniProt Q9BQF6); experiment: inhibition of human SENP7 cleavage activity – biochemical, luminescence, SAR follow-up (AID 504497); type: functional
T5 sequence (Q9BQF6 whole entry): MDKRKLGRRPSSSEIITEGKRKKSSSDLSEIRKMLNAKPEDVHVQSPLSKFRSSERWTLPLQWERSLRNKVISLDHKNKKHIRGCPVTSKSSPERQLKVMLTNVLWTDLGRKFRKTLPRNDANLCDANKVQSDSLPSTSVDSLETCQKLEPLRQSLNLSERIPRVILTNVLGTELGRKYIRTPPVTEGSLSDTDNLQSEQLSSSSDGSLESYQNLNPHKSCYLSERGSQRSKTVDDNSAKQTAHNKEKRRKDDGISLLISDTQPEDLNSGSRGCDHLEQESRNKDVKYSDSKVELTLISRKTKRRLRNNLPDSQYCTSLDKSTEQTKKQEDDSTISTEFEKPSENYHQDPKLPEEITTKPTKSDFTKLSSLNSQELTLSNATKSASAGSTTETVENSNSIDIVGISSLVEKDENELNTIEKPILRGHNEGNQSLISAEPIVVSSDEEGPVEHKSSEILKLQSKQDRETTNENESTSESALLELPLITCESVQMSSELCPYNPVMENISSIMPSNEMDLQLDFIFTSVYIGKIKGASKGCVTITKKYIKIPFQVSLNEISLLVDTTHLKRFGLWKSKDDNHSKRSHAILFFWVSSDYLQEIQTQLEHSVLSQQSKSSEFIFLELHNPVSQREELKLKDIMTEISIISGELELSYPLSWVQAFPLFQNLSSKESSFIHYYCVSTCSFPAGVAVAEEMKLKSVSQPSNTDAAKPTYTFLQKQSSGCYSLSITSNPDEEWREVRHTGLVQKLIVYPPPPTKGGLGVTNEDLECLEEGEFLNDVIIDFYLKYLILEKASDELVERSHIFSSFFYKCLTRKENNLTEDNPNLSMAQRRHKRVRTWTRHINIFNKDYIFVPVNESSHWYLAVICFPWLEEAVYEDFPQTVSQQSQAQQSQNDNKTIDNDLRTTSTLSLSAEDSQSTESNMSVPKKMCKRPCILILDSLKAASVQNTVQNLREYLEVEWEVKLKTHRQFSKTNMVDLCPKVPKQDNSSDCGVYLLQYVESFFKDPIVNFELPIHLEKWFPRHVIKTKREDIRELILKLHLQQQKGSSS

[26] = molecular target: Latent membrane protein 1 (Human herpesvirus 4 (strain B95-8), UniProt P03230); experiment: LMP1 TES1 pathway selectivity over dsRED control – imaging, HEK293T, dual-color eGFP/dsRED, cherry-picks, selectivity assay for LMP1 NF-kB inhibitor project, dose response (AID 588398); type: functional, cell-based
Latent membrane protein 1, sequence (P03230 whole entry): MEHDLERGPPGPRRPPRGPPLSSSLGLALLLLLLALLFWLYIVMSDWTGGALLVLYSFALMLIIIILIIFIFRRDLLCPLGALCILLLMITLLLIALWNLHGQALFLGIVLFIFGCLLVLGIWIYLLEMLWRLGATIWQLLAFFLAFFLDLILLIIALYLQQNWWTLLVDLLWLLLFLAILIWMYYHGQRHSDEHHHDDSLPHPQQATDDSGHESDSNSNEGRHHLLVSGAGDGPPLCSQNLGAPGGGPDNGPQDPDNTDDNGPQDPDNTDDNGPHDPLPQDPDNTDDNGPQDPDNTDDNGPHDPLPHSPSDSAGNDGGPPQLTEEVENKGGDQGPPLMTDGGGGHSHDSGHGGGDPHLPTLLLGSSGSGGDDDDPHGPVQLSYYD

[27] = viability of uninfected HEp-2 cells – cell-based, HTS, cytotoxicity control for RSV inhibitor project, dose response (AID 2410); type: functional; conditions: human respiratory syncytial virus

With `CC(C)(C)c1ccc(-c2noc(CCC(N)=O)n2)cc1` the EC50 [1] was > 50 µM (not active), the EC50 [2] was 528 nM (active) and the IC50 [3] was > 39.8 µM (not active). For the same molecule, the EC50 [4] was < 100 nM (active), the AC50 [5] was < 260 nM (active) and the IC50 [6] was > 80 µM (inactive). The EC50 [7] was 14.9 µM (inactive), the EC50 [8] was 517 nM (active) and the AC50 [9] was 0.401 µM (active). The AC50 [10] was 344 nM (active), the EC50 [11] was < 100 nM (active) and the IC50 [12] was > 80 µM (inactive). For the same molecule, the EC50 [13] was > 8 µM (not active), the IC50 [14] was 480 nM (active) and the AC50 [15] was < 260 nM (active). The EC50 [16] was 470 nM (active), the IC50 [17] was 260 nM (active) and the AC50 [18] was < 260 nM (active). For the same molecule, the EC50 [19] was 203 nM (active), the EC50 [20] was 16.5 µM (active) and the EC50 [21] was 443 nM (active).

For `CCc1cccc2c(C(=O)CN3C(=O)c4ccccc4S3(=O)=O)c[nH]c12`, the IC50 [22] was > 99 µM (inactive), the IC50 [23] was > 99 µM (inactive) and the IC50 [24] was > 99 µM (inactive). The IC50 [25] was > 99 µM (inactive).

With `CCn1c2ccccc2c2cc(/C=N/n3cnnc3)ccc21` the AC50 [9] was 11.5 µM (active), the AC50 [26] was 4.05 µM (active) and the CC50 [27] was 18.2 µM (active).
